# Marks after values point to notes of the source that are not given here.
# What was measured:
# [1] = tested on: patients with follicular lymphoma (FL); assay: Phase 1b study of Compound A35 alone or with rituximab: disease response in follicular lymphoma patients; assay type: in vivo, human
# Experimental: In an ongoing Phase 1b study, patients with relapsed B-cell malignancies are administered Compound A35 either as a single agent or in combination with the anti-CD20 antibody rituximab (Rituxan®). A total of 90 subjects have been enrolled in the study to date: • 31 subjects enrolled in a dose escalation cohort of Compound A35 administered as a single agent at a daily dose of 60, 120, and 180 mg; • 21 subjects enrolled in an ongoing expansion cohort of Compound A35 administered as a single agent at 60 mg/day, either on a daily continuous schedule (CS) only or on a daily dosing followed by a switch to an intermittent dosing schedule […] beginning in Cycle 3. • 38 subjects enrolled in a cohort of Compound A35 at 60 mg/day on a CS or IS dosing plus infusional rituximab at a dose of 375 mg/m^2 administered for a total of 8 doses in 6 months
# Patients with FL were treated with Compound A35 either alone (N=40) or in combination with the anti-CD20 antibody rituximab (N=14). Most patients in the rituximab combination cohort received Compound A35 by intermittent schedule (IS) after 2 cycles of daily dosing of Compound A35.
# (§1) Methods: Patients with ECOG ≤2, no prior PI3K therapy and progression of disease (POD) after ≥1 prior therapy were initially enrolled in a dose escalation phase (60-180 mg) then in 60 mg expansion cohorts as monotherapy or in combination with rituximab. Treatment is given in 28-day cycles and continued until POD or unacceptable toxicity. Compound A35 was given initially on a continuous daily dosing schedule. An intermittent dosing schedule on days 1-7 of a 28-day cycle was then evaluated after 2 cycles of daily dosing, or ≥3 cycles of daily dosing to reduce the risk of immune-related adverse events. For this analysis the intermittent schedule (IS) group is defined as patients who received Compound A35 alone or with rituximab daily for 2 cycles then switched to an intermittent schedule of 1 week per cycle, and the continuous schedule (CS) group is defined as patients who never switched to intermittent dosing or switched to intermittent dosing in cycle 4 or later cycles. Toxicity on CS is managed by a switch to IS. Progression of disease (POD) on IS is managed by a switch to CS.
# [2] = tested on: patients with follicular lymphoma (FL); assay: Phase 1b study: patients with adverse events of special interest (AESI); assay type: in vivo, human
# Experimental: as §1
# [3] = tested on: patients with follicular lymphoma (FL); assay: Phase 1b study: patient disposition on continuous (CS) or intermittent (IS) schedule; assay type: in vivo, human
# Experimental: as §1
# [4] = Tumor exposure of Compound A35 (FIG. 3); assay type: in vivo; conditions: over a 4-hour and 24-hour period (FIG. 3)
# murine B-cell tumors = assay: Retention in murine B-cell tumors (FIG. 4); assay type: in vivo; conditions: compared to idelalisib (FIG. 4)
# [5] = All Grades, All (N = 40), single agent therapy
# [6] = All Grades, CS Group (N = 25), single agent therapy
# [7] = All Grades, CS Group (N = 31), A35 alone or with rituximab
# [8] = All Grades, IS Group (N = 15), single agent therapy
# [9] = All Grades, IS Group (N = 23), A35 alone or with rituximab
# [10] = Grade 3, CS Group (N = 31), A35 alone or with rituximab
# [11] = Grade 3, IS Group (N = 23), A35 alone or with rituximab
# [12] = Related Grade 3, All (N = 40), single agent therapy
# [13] = Related Grade 3, CS Group (N = 25), single agent therapy
# [14] = Related Grade 3, IS Group (N = 15), single agent therapy
# [15] = CS Group (N = 25), Compound A35 alone arm
# [16] = CS Group (N = 31), A35 alone or with rituximab
# [17] = FL patients, A35 alone or with rituximab
# [18] = IS Group (N = 15), Compound A35 alone arm
# [19] = IS Group (N = 23), A35 alone or with rituximab
compound,measurement,setting,value
CN1CCC(c2ccccc2CC(C)(C)Nc2nc(N3CCOCC3)nc(-n3c(C(F)F)nc4ccccc43)n2)CC1 [Compound A35],rate of response in POD24 patients,"[1]; A35 alone or in combination with a CD20 inhibitor, higher than expected with conventional FL therapy",very high rate of response
same,morphologic/metabolic CR,"[1]; FL patients with follow-up disease assessment, Compound A35 alone",20%
same,No. (%) of Subjects with a Response,"[1]; No POD24, Total (A35 alone and A35 + rituximab cohorts)",16 (67%) No. (%)
same,No. (%) of Subjects with a Response,[1]; No POD24 FL subjects evaluable for response,14 (64%) No. (%)
same,No. (%) of Subjects with a Response,"[1]; POD24, Total (A35 alone and A35 + rituximab cohorts)",24 (92%) No. (%)
same,No. (%) of Subjects with a Response,[1]; POD24 FL subjects evaluable for response,16 (100%) No. (%)
same,rate of durable responses,[1]; R/R FL,high rate of durable responses
same,POD24 subjects with response who had PD,[1]; of 24 POD24 subjects who achieved response,6 subjects
same,AESI: ALT/AST increased,[2]; [5],9 (22.5%)
same,AESI: Diarrhea/colitis,[2]; [5],17 (42.5%)
same,AESI: Mucositis,[2]; [5],6 (15.0%)
same,AESI: Pneumonia/ Pneumonitis,[2]; [5],2 (5.0%)
same,"AESI: Rash, all types",[2]; [5],12 (30.0%)
same,AESI: ALT/AST increased,[2]; [6],6 (24.0%)
same,AESI: Diarrhea/colitis,[2]; [6],10 (40.0%)
same,AESI: Mucositis,[2]; [6],6 (24.0%)
same,AESI: Pneumonia/ Pneumonitis,[2]; [6],2 (8.0%)
same,"AESI: Rash, all types",[2]; [6],11 (44.0%)
same,AESI: ALT/AST increased,[2]; [7],8 (25.8%)
same,AESI: Diarrhea/colitis,[2]; [7],11 (35.5%)
same,AESI: Mucositis,[2]; [7],6 (19.4%)
same,AESI: Pneumonia,[2]; [7],2 (6.5%)
same,"AESI: Rash, all types",[2]; [7],11 (35.5%)
same,AESI: ALT/AST increased,[2]; [8],3 (20.0%)
same,AESI: Diarrhea/colitis,[2]; [8],7 (46.7%)
same,AESI: Mucositis,[2]; [8],0%
same,AESI: Pneumonia/ Pneumonitis,[2]; [8],0%
same,"AESI: Rash, all types",[2]; [8],1 (6.7%)
same,AESI: ALT/AST increased,[2]; [9],7 (30.4%)
same,AESI: Mucositis,[2]; [9],1 (4.3%)
same,AESI: Pneumonia,[2]; [9],0%
same,"AESI: Rash, all types",[2]; [9],2 (8.7%)
same,AESI: Diarrhea/colitis,"[2]; All Grades, IS Group (N = 23), A35 alone or with rituximab, excluded 1 subject with diarrhea after POD and 1 with one-day diarrhea",11 (47.8%)*
same,AESI: ALT/AST increased,[2]; [10],3 (9.7%)
same,AESI: Diarrhea/colitis,[2]; [10],5 (16.1%)
same,AESI: Mucositis,[2]; [10],1 (3.2%)
same,AESI: Pneumonia,[2]; [10],2 (6.5%)
same,"AESI: Rash, all types",[2]; [10],4 (12.9%)
same,AESI: ALT/AST increased,[2]; [11],1 (4.3%)
same,AESI: Diarrhea/colitis,[2]; [11],2 (8.7%)
same,AESI: Mucositis,[2]; [11],0%
same,AESI: Pneumonia,[2]; [11],0%
same,"AESI: Rash, all types",[2]; [11],0%
same,Grade 3 immune-related adverse events,[2]; IS group (N=23) compared to the CS group (N=31),less common
same,AESI: ALT/AST increased,[2]; [12],3 (7.5%)
same,AESI: Diarrhea/colitis,[2]; [12],6 (15.0%)
same,AESI: Mucositis,[2]; [12],1 (2.5%)
same,AESI: Pneumonia/ Pneumonitis,[2]; [12],2 (5.0%)
same,"AESI: Rash, all types",[2]; [12],4 (10.0%)
same,AESI: ALT/AST increased,[2]; [13],3 (12.0%)
same,AESI: Diarrhea/colitis,[2]; [13],5 (20.0%)
same,AESI: Mucositis,[2]; [13],1 (4.0%)
same,AESI: Pneumonia/ Pneumonitis,[2]; [13],2 (8.0%)
same,"AESI: Rash, all types",[2]; [13],4 (16.0%)
same,AESI: ALT/AST increased,[2]; [14],0%
same,AESI: Diarrhea/colitis,[2]; [14],1 (6.7%)
same,AESI: Mucositis,[2]; [14],0%
same,AESI: Pneumonia/ Pneumonitis,[2]; [14],0%
same,"AESI: Rash, all types",[2]; [14],0%
same,incidence of immune-related adverse events (irAEs),[2]; intermittent schedule (IS),appears to reduce the incidence
same,Patient Disposition: Adverse event,[3]; [15],3 (12%)
same,Patient Disposition: Progressive disease,[3]; [15],4 (16%)
same,Patient Disposition: Adverse event,[3]; [16],3 (10%)
same,Patient Disposition: Progressive disease,[3]; [16],4 (13%)
same,patients discontinued: POD,[3]; [17],9 patients
same,patients discontinued: adverse events (AEs),[3]; [17],4 patients
same,Patient Disposition: Adverse event,[3]; [18],1 (7%)
same,Patient Disposition: Progressive disease,[3]; [18],0%
same,Patient Disposition: Adverse event,[3]; [19],1 (4%)
same,Patient Disposition: Progressive disease,[3]; [19],0 (0%)
same,tumor exposure,[4],preferential tumor exposure
same,retention in murine B-cell tumors,murine B-cell tumors,preferential retention

# — patent US20210196725A1, “TREATMENT OF RELAPSED FOLLICULAR LYMPHOMA” (MEI Pharma, Inc., priority 2018, published 2021)
